Experimental data as given in patent publication US7153979B2, “Triterpene derivatives and remedies for liver diseases” (Meiji Seika Kaisha, Ltd., priority 1996, dated 2006).

System: hepatitis induced by concanavalin A in mice
Assay: Concanavalin A (Con A) hepatitis model, plasma ALT
Type: in vivo, BALB/c male mice
Details: 24 hr after Con A, control group 2068±518
Protocol: Effect in Concanavalin A (Con A) Hepatitis Model
Con A dissolved in physiological saline was intravenously administered at a dose of 20 mg/kg to BALB/c male mice (8 weeks in age) having a body weight of 21 to 25 g to induce hepatitis. A test compound (compound 7) was suspended in a mixed solution (control vehicle) composed of 25% dimethylsufoxide, 25% polyethylene glycol 400, and 0.25% carboxymethyl cellulose, and the suspension was subcutaneously administered 2 hr and 14 hr before the administration of Con A at three levels of dose, i.e., 0.2 mg/mouse, 1.0 mg/mouse, and 2.0 mg/mouse. A control vehicle alone was administered to a group of control mice. Twenty four hr after the administration of Con A, the mice were sacrificed under ether anesthesia to assay the alanine aminotransferase (ALT) activity, in plasma, as an index of hepatopathy.

## CC1(C)C[C@H]2C3=CC[C@@H]4[C@@]5(C)CC[C@H](O)[C@](C)(CO)[C@@H]5CC[C@@]4(C)[C@]3(C)CC[C@@]2(C)[C@H](O)[C@@H]1O [Compound 7, Soyasapogenol A]
1.0 mg/mouse subcutaneously 2 hr and 14 hr before Con A 20 mg/kg i.v.
  alanine aminotransferase (ALT) activity in plasma: 55±16 u/l
2.0 mg/mouse subcutaneously 2 hr and 14 hr before Con A 20 mg/kg i.v.
  alanine aminotransferase (ALT) activity in plasma: 55±16 u/l
